Like-named read-outs stand apart in the source and are kept apart here.
Key:
[1] = bioavailability and tissue penetration; details: in vivo
[2] = test system: leukocyte infiltration into inflamed tissue; details: in vivo; cited from earlier work
IL1-α = details: cited from earlier work
MCP-1 = details: cited from earlier work
TNF-α = details: cited from earlier work
IL-6 = details: cited from earlier work
[3] = in vivo; cited from earlier work
IL1-β = details: cited from earlier work
COX-2 = COX-2 (Homo sapiens, UniProt P35354); details: cited from earlier work
Chain of COX-2 (P35354 18-604): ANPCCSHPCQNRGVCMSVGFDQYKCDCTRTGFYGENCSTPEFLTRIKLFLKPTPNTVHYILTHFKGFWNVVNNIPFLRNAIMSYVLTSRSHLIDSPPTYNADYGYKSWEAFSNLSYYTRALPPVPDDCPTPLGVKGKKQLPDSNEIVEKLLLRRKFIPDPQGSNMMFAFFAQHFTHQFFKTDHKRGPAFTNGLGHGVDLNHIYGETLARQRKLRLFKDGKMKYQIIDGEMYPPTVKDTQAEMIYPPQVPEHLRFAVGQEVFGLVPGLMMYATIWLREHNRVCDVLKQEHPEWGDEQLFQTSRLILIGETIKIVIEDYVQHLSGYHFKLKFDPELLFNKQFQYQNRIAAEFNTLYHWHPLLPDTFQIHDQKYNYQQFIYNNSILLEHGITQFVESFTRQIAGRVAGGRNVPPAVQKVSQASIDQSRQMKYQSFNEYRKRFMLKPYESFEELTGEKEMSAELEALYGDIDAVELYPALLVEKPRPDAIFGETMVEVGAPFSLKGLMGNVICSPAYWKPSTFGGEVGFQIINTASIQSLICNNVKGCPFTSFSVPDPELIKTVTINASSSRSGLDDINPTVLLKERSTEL

hepatitis C virus = details: cited from earlier work
TIMP-1 = details: cited from earlier work
MMP-1 = MMP-1 (Homo sapiens, UniProt P03956); details: cited from earlier work
Chain of MMP-1 (P03956 100-469, species assumed): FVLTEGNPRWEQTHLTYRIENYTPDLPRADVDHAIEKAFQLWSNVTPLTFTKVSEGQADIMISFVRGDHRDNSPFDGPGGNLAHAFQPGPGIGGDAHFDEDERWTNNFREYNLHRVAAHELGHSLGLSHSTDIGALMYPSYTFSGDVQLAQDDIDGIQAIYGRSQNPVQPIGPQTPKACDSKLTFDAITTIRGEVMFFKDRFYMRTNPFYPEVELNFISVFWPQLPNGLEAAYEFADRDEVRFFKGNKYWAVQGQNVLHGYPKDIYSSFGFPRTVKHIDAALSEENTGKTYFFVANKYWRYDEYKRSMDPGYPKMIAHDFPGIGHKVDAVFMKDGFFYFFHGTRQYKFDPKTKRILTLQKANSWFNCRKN

MMP-2 = MMP-2 (Homo sapiens, UniProt P08253); details: cited from earlier work
Chain of MMP-2 (P08253 110-660, species assumed): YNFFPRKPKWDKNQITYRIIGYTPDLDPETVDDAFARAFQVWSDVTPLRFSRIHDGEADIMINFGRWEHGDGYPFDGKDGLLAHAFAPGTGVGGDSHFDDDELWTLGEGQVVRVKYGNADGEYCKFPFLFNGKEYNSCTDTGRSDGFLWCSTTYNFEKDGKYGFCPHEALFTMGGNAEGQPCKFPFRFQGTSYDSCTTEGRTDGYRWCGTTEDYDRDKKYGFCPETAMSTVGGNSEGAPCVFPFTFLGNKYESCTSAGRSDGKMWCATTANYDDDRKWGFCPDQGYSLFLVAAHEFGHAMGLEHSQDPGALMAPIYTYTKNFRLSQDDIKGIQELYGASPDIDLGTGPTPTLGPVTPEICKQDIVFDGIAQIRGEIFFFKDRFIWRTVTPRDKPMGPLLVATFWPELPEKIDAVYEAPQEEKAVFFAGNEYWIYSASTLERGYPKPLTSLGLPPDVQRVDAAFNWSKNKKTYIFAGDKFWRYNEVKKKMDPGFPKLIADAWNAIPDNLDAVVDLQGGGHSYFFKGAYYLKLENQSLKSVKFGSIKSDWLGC

[4] = test system: toll-like receptor (TLR) 2+TLR4; details: cited from earlier work
chikungunya (CHIKV) = details: cited from earlier work
induced lung damage = details: acute lung injury research model, dose-dependent; cited from earlier work
MMP-3 = MMP-3 (Homo sapiens, UniProt P08254); details: cited from earlier work
Chain of MMP-3 (P08254 100-477, species assumed): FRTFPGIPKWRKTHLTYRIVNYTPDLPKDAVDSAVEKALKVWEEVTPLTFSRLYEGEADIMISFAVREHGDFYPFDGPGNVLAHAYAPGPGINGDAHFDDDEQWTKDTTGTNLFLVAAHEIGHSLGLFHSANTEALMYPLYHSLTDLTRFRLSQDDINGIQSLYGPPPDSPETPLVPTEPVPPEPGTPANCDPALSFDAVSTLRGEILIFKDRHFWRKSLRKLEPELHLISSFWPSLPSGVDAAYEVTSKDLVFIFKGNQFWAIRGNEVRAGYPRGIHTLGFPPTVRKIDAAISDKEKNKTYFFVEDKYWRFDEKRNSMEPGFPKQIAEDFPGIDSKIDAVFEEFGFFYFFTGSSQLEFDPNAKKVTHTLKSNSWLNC

[5] = test system: natural killer (NK) cells; details: cited from earlier work
[6] = test system: 5′ adenosine monophosphate-activated protein kinase (AMPK); details: cited from earlier work
enterovirus 71 = details: cited from earlier work
MMP-9 = MMP-9 (Homo sapiens, UniProt P14780); details: cited from earlier work
Chain of MMP-9 (P14780 94-707, species assumed): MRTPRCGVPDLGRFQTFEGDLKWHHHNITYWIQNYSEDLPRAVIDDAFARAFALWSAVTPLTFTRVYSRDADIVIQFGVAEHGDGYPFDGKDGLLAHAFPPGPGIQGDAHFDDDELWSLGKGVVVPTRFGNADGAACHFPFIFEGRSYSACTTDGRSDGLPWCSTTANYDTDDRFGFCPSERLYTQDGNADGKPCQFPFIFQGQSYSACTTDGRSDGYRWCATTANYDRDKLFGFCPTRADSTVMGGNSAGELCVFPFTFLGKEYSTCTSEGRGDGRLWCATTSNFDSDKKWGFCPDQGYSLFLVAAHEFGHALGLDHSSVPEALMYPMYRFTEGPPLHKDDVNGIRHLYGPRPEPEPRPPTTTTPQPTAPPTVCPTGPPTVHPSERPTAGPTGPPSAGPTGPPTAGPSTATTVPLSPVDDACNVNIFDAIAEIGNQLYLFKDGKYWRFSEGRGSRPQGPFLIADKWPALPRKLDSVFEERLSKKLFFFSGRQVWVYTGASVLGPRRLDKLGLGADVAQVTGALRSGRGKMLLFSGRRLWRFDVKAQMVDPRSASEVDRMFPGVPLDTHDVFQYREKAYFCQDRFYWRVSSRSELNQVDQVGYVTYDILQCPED

platelet aggregation = details: cited from earlier work
lung function = lung function in subjects having severe pneumonia; assay type: in vivo; details: including from COVID-19
[7] = higher concentration of nobiletin

## COc1ccc(-c2cc(=O)c3c(OC)c(OC)c(OC)c(OC)c3o2)cc1OC [nobiletin, 5,6,7,8,3′,4′-hexamethoxyflavone]
[1]
  relative bioavailability: high relative bioavailability
  tissue penetration: high tissue penetration
[2]
  leukocyte infiltration into inflamed tissue: significantly reduces
IL1-α
  inhibition of IL1-α: significantly inhibiting
MCP-1
  inhibition of MCP-1: significantly inhibiting
TNF-α
  inhibition of TNF-α: significantly inhibiting
IL-6
  inhibition of IL-6: significantly inhibiting
[3]
  anti-obesity effects: weight loss, fat loss
IL1-β
  inhibition of IL1-β: significantly inhibiting
COX-2
  inhibition of COX-2 (and its metabolite PGE2): inhibiting
Hepatitis C virus
  activity against hepatitis C virus: significant activity
TIMP-1
  effect on TIMP-1: upregulating
MMP-1
  inhibition of MMP-1: inhibiting
MMP-2
  inhibition of MMP-2: inhibiting
[4]
  inhibition of TLR2+TLR4: significantly inhibiting
Chikungunya (CHIKV); at viral entry as well as during translation/replication state
  inhibition of chikungunya (CHIKV) infection: inhibit chikungunya (CHIKV) infection
Chikungunya (CHIKV); [7]
  cell survival of virally infected cells: ~90%
  increase in survival of virally infected cells: 6 fold
Chikungunya (CHIKV); lower concentration of nobiletin, cell survival without it <15%
  increase in survival of virally infected cells: 4 fold
Induced lung damage
  induced lung damage: nearly eliminated lung damage
MMP-3
  inhibition of MMP-3: inhibiting
[5]
  anti-viral activity of NK cells: potentiating
[6]
  AMPK levels and activity: increasing
Enterovirus 71
  anti-viral activity against enterovirus 71: direct anti-viral activity
MMP-9
  inhibition of MMP-9: inhibiting
Platelet aggregation
  platelet aggregation: suppression of platelet aggregation
Lung function
  lung function: excellent ability to restore lung function

From US20230270712A1, “NOBILETIN COMPOSITIONS AND METHODS FOR THE TREATMENT AND PREVENTION OF COVID-19 AND RELATED PATHOLOGIES” (CAS PROPERTIES, LLC, priority 2020, published 2023)
